Results taken from PubChem BioAssay (NCI).
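Cells were grown in 96-well plates and exposed to each compound for 48 hours at five concentrations; endpoints were interpolated linearly between bracketing concentrations, or set to the highest concentration if not reached. At the TGI there is no net growth.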

Experiments:
Experiment in all cases: NCI tumour cell line growth inhibition, 48 h
786-0 renal = test system: 786-0 renal
A549 NSCLC = test system: A549 NSCLC
ACHN renal = test system: ACHN renal
CCRF-CEM leukemia = test system: CCRF-CEM leukemia
COLO 205 colon = test system: COLO 205 colon
DLD-1 colon = test system: DLD-1 colon
DMS 114 small cell lung = test system: DMS 114 small cell lung
DMS 273 small cell lung = test system: DMS 273 small cell lung
EKVX NSCLC = test system: EKVX NSCLC
HCT-116 colon = test system: HCT-116 colon
HCT-15 colon = test system: HCT-15 colon
HL-60(TB) leukemia = test system: HL-60(TB) leukemia
HOP-18 NSCLC = test system: HOP-18 NSCLC
HOP-62 NSCLC = test system: HOP-62 NSCLC
HT29 colon = test system: HT29 colon
IGROV1 ovarian = test system: IGROV1 ovarian
K-562 leukemia = test system: K-562 leukemia
KM12 colon = test system: KM12 colon
LOX IMVI melanoma = test system: LOX IMVI melanoma
M14 melanoma = test system: M14 melanoma
M19-MEL melanoma = test system: M19-MEL melanoma
MALME-3M melanoma = test system: MALME-3M melanoma
MOLT-4 leukemia = test system: MOLT-4 leukemia
NCI-H226 lung = test system: NCI-H226 lung
NCI-H23 lung = test system: NCI-H23 lung
NCI-H460 lung = test system: NCI-H460 lung
NCI-H522 lung = test system: NCI-H522 lung
OVCAR-3 ovarian = test system: OVCAR-3 ovarian
OVCAR-8 ovarian = test system: OVCAR-8 ovarian
RPMI-8226 leukemia = test system: RPMI-8226 leukemia
RXF 393 renal = test system: RXF 393 renal
SF-295 CNS = test system: SF-295 CNS
SF-539 CNS = test system: SF-539 CNS
SK-MEL-28 melanoma = test system: SK-MEL-28 melanoma
SK-MEL-5 melanoma = test system: SK-MEL-5 melanoma
SK-OV-3 ovarian = test system: SK-OV-3 ovarian
SN12C renal = test system: SN12C renal
SNB-19 CNS = test system: SNB-19 CNS
SNB-75 CNS = test system: SNB-75 CNS
SW-620 colon = test system: SW-620 colon
TK-10 renal = test system: TK-10 renal
U251 CNS = test system: U251 CNS
UACC-257 melanoma = test system: UACC-257 melanoma
UACC-62 melanoma = test system: UACC-62 melanoma
UO-31 renal = test system: UO-31 renal
XF 498 CNS = test system: XF 498 CNS
A498 renal = test system: A498 renal
HCC-2998 colon = test system: HCC-2998 colon
HOP-92 NSCLC = test system: HOP-92 NSCLC
KM20L2 colon = test system: KM20L2 colon
LXFL 529 NSCLC = test system: LXFL 529 NSCLC
OVCAR-4 ovarian = test system: OVCAR-4 ovarian
OVCAR-5 ovarian = test system: OVCAR-5 ovarian
SF-268 CNS = test system: SF-268 CNS
SK-MEL-2 melanoma = test system: SK-MEL-2 melanoma
SNB-78 CNS = test system: SNB-78 CNS
SR leukemia = test system: SR leukemia
CAKI-1 renal = test system: CAKI-1 renal
RXF-631 renal = test system: RXF-631 renal

## C=C1CCC2(C(C)=O)COC1(C)O2 (configuration not stated)
786-0 renal
  TGI: > 100 µM
A549 NSCLC
  TGI: > 100 µM
ACHN renal
  TGI: > 100 µM
CCRF-CEM leukemia
  TGI: > 100 µM
COLO 205 colon
  TGI: > 100 µM
DLD-1 colon
  TGI: > 100 µM
DMS 114 small cell lung
  TGI: > 100 µM
DMS 273 small cell lung
  TGI: > 100 µM
EKVX NSCLC
  TGI: > 100 µM
HCT-116 colon
  TGI: > 100 µM
HCT-15 colon
  TGI: > 100 µM
HL-60(TB) leukemia
  TGI: > 100 µM
HOP-18 NSCLC
  TGI: > 100 µM
HOP-62 NSCLC
  TGI: > 100 µM
HT29 colon
  TGI: > 100 µM
IGROV1 ovarian
  TGI: > 100 µM
K-562 leukemia
  TGI: > 100 µM
KM12 colon
  TGI: > 100 µM
LOX IMVI melanoma
  TGI: > 100 µM
M14 melanoma
  TGI: > 100 µM
M19-MEL melanoma
  TGI: > 100 µM
MALME-3M melanoma
  TGI: > 100 µM
MOLT-4 leukemia
  TGI: > 100 µM
NCI-H226 lung
  TGI: > 100 µM
NCI-H23 lung
  TGI: > 10 µM
NCI-H460 lung
  TGI: > 100 µM
NCI-H522 lung
  TGI: > 10 µM
OVCAR-3 ovarian
  TGI: > 100 µM
OVCAR-8 ovarian
  TGI: > 100 µM
RPMI-8226 leukemia
  TGI: > 100 µM
RXF 393 renal
  TGI: > 10 µM
SF-295 CNS
  TGI: > 100 µM
SF-539 CNS
  TGI: > 100 µM
SK-MEL-28 melanoma
  TGI: > 100 µM
SK-MEL-5 melanoma
  TGI: > 100 µM
SK-OV-3 ovarian
  TGI: > 100 µM
SN12C renal
  TGI: > 100 µM
SNB-19 CNS
  TGI: > 100 µM
SNB-75 CNS
  TGI: > 100 µM
SW-620 colon
  TGI: > 100 µM
TK-10 renal
  TGI: > 100 µM
U251 CNS
  TGI: > 100 µM
UACC-257 melanoma
  TGI: > 100 µM
UACC-62 melanoma
  TGI: > 100 µM
UO-31 renal
  TGI: > 100 µM
XF 498 CNS
  TGI: > 100 µM

## COc1ccc(C2NC3=C(CCCC3)N2)cc1
786-0 renal
  TGI: > 100 µM
A498 renal
  TGI: > 100 µM
A549 NSCLC
  TGI: > 100 µM
ACHN renal
  TGI: > 100 µM
CCRF-CEM leukemia
  TGI: > 100 µM
COLO 205 colon
  TGI: > 100 µM
DLD-1 colon
  TGI: > 100 µM
DMS 114 small cell lung
  TGI: > 100 µM
DMS 273 small cell lung
  TGI: > 100 µM
HCC-2998 colon
  TGI: > 100 µM
HCT-116 colon
  TGI: > 100 µM
HCT-15 colon
  TGI: > 100 µM
HL-60(TB) leukemia
  TGI: 66 µM
HOP-62 NSCLC
  TGI: > 100 µM
HOP-92 NSCLC
  TGI: > 100 µM
HT29 colon
  TGI: > 100 µM
IGROV1 ovarian
  TGI: > 100 µM
KM12 colon
  TGI: > 100 µM
KM20L2 colon
  TGI: 80.8 µM
LOX IMVI melanoma
  TGI: > 100 µM
LXFL 529 NSCLC
  TGI: > 100 µM
M14 melanoma
  TGI: > 100 µM
M19-MEL melanoma
  TGI: > 100 µM
MALME-3M melanoma
  TGI: > 100 µM
MOLT-4 leukemia
  TGI: > 100 µM
NCI-H226 lung
  TGI: > 100 µM
NCI-H23 lung
  TGI: > 100 µM
NCI-H460 lung
  TGI: > 100 µM
NCI-H522 lung
  TGI: > 100 µM
OVCAR-3 ovarian
  TGI: > 100 µM
OVCAR-4 ovarian
  TGI: > 100 µM
OVCAR-5 ovarian
  TGI: > 100 µM
OVCAR-8 ovarian
  TGI: > 100 µM
RPMI-8226 leukemia
  TGI: > 100 µM
SF-268 CNS
  TGI: > 100 µM
SF-295 CNS
  TGI: > 100 µM
SF-539 CNS
  TGI: > 100 µM
SK-MEL-2 melanoma
  TGI: > 100 µM
SK-MEL-28 melanoma
  TGI: > 100 µM
SK-MEL-5 melanoma
  TGI: 67.5 µM
SK-OV-3 ovarian
  TGI: > 100 µM
SN12C renal
  TGI: > 100 µM
SNB-75 CNS
  TGI: > 100 µM
SNB-78 CNS
  TGI: > 100 µM
SR leukemia
  TGI: > 100 µM
TK-10 renal
  TGI: > 100 µM
U251 CNS
  TGI: > 100 µM
UACC-257 melanoma
  TGI: > 100 µM
UO-31 renal
  TGI: > 100 µM
XF 498 CNS
  TGI: > 100 µM

## CC(=O)Nc1ccc(C(=O)n2[nH]c(C)c(/C=C3\C(=O)C=Cc4ccccc43)c2=O)cc1
786-0 renal
  TGI: > 100 µM
A549 NSCLC
  TGI: > 100 µM
ACHN renal
  TGI: > 100 µM
CAKI-1 renal
  TGI: > 100 µM
CCRF-CEM leukemia
  TGI: > 100 µM
COLO 205 colon
  TGI: > 100 µM
DLD-1 colon
  TGI: > 100 µM
DMS 114 small cell lung
  TGI: > 100 µM
DMS 273 small cell lung
  TGI: > 100 µM
EKVX NSCLC
  TGI: > 100 µM
HCC-2998 colon
  TGI: > 100 µM
HCT-116 colon
  TGI: > 100 µM
HCT-15 colon
  TGI: > 100 µM
HL-60(TB) leukemia
  TGI: > 100 µM
HOP-18 NSCLC
  TGI: > 100 µM
HOP-62 NSCLC
  TGI: > 100 µM
HT29 colon
  TGI: > 100 µM
K-562 leukemia
  TGI: > 100 µM
KM12 colon
  TGI: > 100 µM
LOX IMVI melanoma
  TGI: > 100 µM
M14 melanoma
  TGI: > 100 µM
M19-MEL melanoma
  TGI: > 100 µM
MALME-3M melanoma
  TGI: 59.3 µM
MOLT-4 leukemia
  TGI: > 100 µM
NCI-H226 lung
  TGI: > 100 µM
NCI-H23 lung
  TGI: > 100 µM
NCI-H460 lung
  TGI: > 100 µM
NCI-H522 lung
  TGI: > 100 µM
OVCAR-3 ovarian
  TGI: > 100 µM
OVCAR-4 ovarian
  TGI: > 100 µM
OVCAR-5 ovarian
  TGI: > 100 µM
OVCAR-8 ovarian
  TGI: > 100 µM
RPMI-8226 leukemia
  TGI: > 100 µM
SF-268 CNS
  TGI: > 100 µM
SF-295 CNS
  TGI: > 100 µM
SF-539 CNS
  TGI: > 100 µM
SK-MEL-2 melanoma
  TGI: 95.3 µM
SK-MEL-28 melanoma
  TGI: > 100 µM
SK-MEL-5 melanoma
  TGI: > 100 µM
SN12C renal
  TGI: > 100 µM
SNB-19 CNS
  TGI: > 100 µM
SNB-75 CNS
  TGI: > 100 µM
SNB-78 CNS
  TGI: > 100 µM
SR leukemia
  TGI: > 100 µM
SW-620 colon
  TGI: > 100 µM
UACC-257 melanoma
  TGI: > 100 µM
UO-31 renal
  TGI: > 100 µM
XF 498 CNS
  TGI: > 100 µM

## O=C(O)c1ccccc1C1c2ccc(Cl)cc2Oc2cc(Cl)ccc21
786-0 renal
  TGI: > 100 µM
A549 NSCLC
  TGI: > 100 µM
ACHN renal
  TGI: > 100 µM
CAKI-1 renal
  TGI: > 100 µM
CCRF-CEM leukemia
  TGI: > 100 µM
COLO 205 colon
  TGI: > 100 µM
DLD-1 colon
  TGI: > 100 µM
DMS 114 small cell lung
  TGI: > 100 µM
DMS 273 small cell lung
  TGI: > 100 µM
EKVX NSCLC
  TGI: > 100 µM
HCC-2998 colon
  TGI: > 100 µM
HCT-15 colon
  TGI: > 100 µM
HL-60(TB) leukemia
  TGI: > 100 µM
HOP-18 NSCLC
  TGI: > 100 µM
HOP-62 NSCLC
  TGI: > 100 µM
HOP-92 NSCLC
  TGI: > 100 µM
HT29 colon
  TGI: > 100 µM
IGROV1 ovarian
  TGI: > 100 µM
K-562 leukemia
  TGI: > 100 µM
KM12 colon
  TGI: > 100 µM
KM20L2 colon
  TGI: > 100 µM
LOX IMVI melanoma
  TGI: > 100 µM
LXFL 529 NSCLC
  TGI: > 100 µM
M14 melanoma
  TGI: > 100 µM
M19-MEL melanoma
  TGI: > 100 µM
MALME-3M melanoma
  TGI: > 100 µM
MOLT-4 leukemia
  TGI: > 100 µM
NCI-H23 lung
  TGI: > 100 µM
NCI-H460 lung
  TGI: > 100 µM
NCI-H522 lung
  TGI: > 100 µM
OVCAR-3 ovarian
  TGI: > 100 µM
OVCAR-4 ovarian
  TGI: > 100 µM
OVCAR-5 ovarian
  TGI: > 100 µM
OVCAR-8 ovarian
  TGI: > 100 µM
RPMI-8226 leukemia
  TGI: > 100 µM
RXF 393 renal
  TGI: > 100 µM
RXF-631 renal
  TGI: > 100 µM
SF-268 CNS
  TGI: > 100 µM
SF-295 CNS
  TGI: > 100 µM
SF-539 CNS
  TGI: > 100 µM
SK-MEL-2 melanoma
  TGI: > 100 µM
SK-MEL-28 melanoma
  TGI: > 100 µM
SK-MEL-5 melanoma
  TGI: > 100 µM
SK-OV-3 ovarian
  TGI: > 100 µM
SN12C renal
  TGI: > 100 µM
SNB-19 CNS
  TGI: > 100 µM
SNB-75 CNS
  TGI: > 100 µM
SW-620 colon
  TGI: > 100 µM
TK-10 renal
  TGI: > 100 µM
U251 CNS
  TGI: > 100 µM
UACC-257 melanoma
  TGI: > 100 µM
UACC-62 melanoma
  TGI: > 100 µM
UO-31 renal
  TGI: > 100 µM
